The results in this text go back to patent US20050261290A1, “Novel compounds of proline and morpholine derivatives” (priority 2004, published 2005).

This assay deals with human 11b-hsd-1 (Homo sapiens, UniProt P28845). In words: Inhibition constant Ki of human 11b-hsd-1 (3H-cortisone to 3H-cortisol conversion, HPLC). Format: biochemical. The note with it: for Ki: apparent Ki, read-out: Ki app.

One may read the inhibition as the drop in the measured response relative to a control, in per cent. A higher inhibition goes with a response far below the control.

Like-named read-outs stand apart in the source and are kept apart here.

human 11b-hsd-1, sequence (P28845 whole entry): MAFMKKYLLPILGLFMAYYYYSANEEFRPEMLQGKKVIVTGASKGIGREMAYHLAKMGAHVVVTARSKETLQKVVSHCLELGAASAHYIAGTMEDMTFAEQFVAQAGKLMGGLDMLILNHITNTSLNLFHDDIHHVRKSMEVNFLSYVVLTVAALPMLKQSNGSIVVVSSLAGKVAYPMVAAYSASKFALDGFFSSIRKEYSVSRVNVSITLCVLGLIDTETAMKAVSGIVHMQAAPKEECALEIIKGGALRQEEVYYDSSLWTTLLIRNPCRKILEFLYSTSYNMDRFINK
Procedure: In each well, varying amounts of compounds are incubated with a fixed amount of 11b-hsd-1 (4 nM) and NADPH (500 μM) for 30 to 40 min at room temperature in the assay buffer. The enzyme concentration was determined by titration using reversible tight-binding inhibitors. […] The area of 3H-cortisol is calculated and plotted versus time to determine a linear velocity. […] Where vi, and vo are the rates of cortisol formation in the presence and in the absence of inhibitor, respectively, I is the inhibitor concentration and E is the 11 b-hsd-1 concentration in the assay buffer. […] NADPH, Glucose-6-Phosphate (G6P), and Glucose-6-Phosphate dehydrogenase was purchased from Sigma.

Compound `CCCN1CCC[C@H](C(=O)NC2C3CC4CC(C3)CC2C4)C1` (stereo partly drawn) [Example 125] had an inhibition at 0.1 µM (compound at 0.1 μM) of 81%.

Turning to `O=C(N[C@@H]1CCc2ccccc21)[C@H]1CCCN1Cc1ccccc1` [Example 283], the Ki amounted to 5.6 nM. This compound also came in with an inhibition at 0.1 µM (0.1 μM compound) of 100%.

As for `CCOc1ccccc1CNC(=O)[C@H]1CCCN1CC(C)C` [Example 53], under “human 11b-hsd-1”, the Ki turned out to be 4.6 nM. The compound also returned an inhibition at 0.1 µM (compound at 0.1 μM) of 100%.

As for `O=C(NC1C2CC3CC(C2)CC1C3)[C@@H]1C[C@H](Oc2ccc(Cl)c(F)c2)CN1` (stereo partly drawn) [Example 365], the Ki stood at 1 nM. Besides, where the note is “0.1 μM compound”, the inhibition at 0.1 µM came to 100%.

As to `O=C(NC1C2CC3CC(C2)CC1C3)[C@H]1C[C@@H](O)CN1Cc1ccccc1` (stereo partly drawn) [Example 26], the Ki (human 11b-hsd-1) came to 1 nM. Also, the inhibition at 0.1 µM (compound at 0.1 μM) came to 100%.

Consider `O=C(NC1CCCCC1)[C@H]1CCCN1CC1CC1` [Example 102], for which the Ki (human 11b-hsd-1) is 7 nM. For the same compound, for the setting “compound at 0.1 μM”, the inhibition at 0.1 µM stood at 91%.

Take `O=C(NC1C2CC3CC(C2)CC1C3)[C@H]1C[C@@H](O)CN1CC1CCCC1` (stereo partly drawn) [Example 28, (4R)-N-2-adamantyl-1-cyclopentylmethyl-4-hydroxy-D-prolinamide]: the Ki (human 11b-hsd-1) is 1 nM. Further, testing at 0.1 µM (compound at 0.1 μM) gave an inhibition of 100%.

As for `O=C(NC1CCCCC1)[C@H]1COCCN1Cc1ccccc1` [Example 302], the Ki came to 3.2 nM. Under “0.1 μM compound”, 0.1 µM produced 99.1% inhibition.

For `O=C(NC1CCCCC1)[C@H]1CCCN1Cc1ccccc1` [Example 282], the Ki turned out to be 2.34 nM. The compound further came in with an inhibition at 0.1 µM (0.1 μM compound) of 100%.

For the setting “compound at 0.1 μM”, `CC(C)(C)OC(=O)N1CCN(CC2CCCC2)[C@@H](C(=O)NC23CC4CC(CC(C4)C2)C3)C1` [Example 161] registered an inhibition at 0.1 µM of 8.7%.

In the case of `CN(C(=O)C1COCCN1Cc1ccccc1)C1CCCCC1` (stereo not drawn) [Example 177], the Ki (human 11b-hsd-1) is 18 nM. This compound also returned an inhibition at 0.1 µM (compound at 0.1 μM) of 92.2%.

On to `O=C(N[C@@H]1CCCc2ccccc21)[C@H]1COCCN1Cc1ccccc1` [Example 313], for which the Ki is 4.89 nM. Testing at 0.1 µM (0.1 μM compound) gave an inhibition of 97%.

In the case of `COc1cccc(CNC(=O)[C@H]2CCCN2CC2CCCC2)c1` [Example 262], the Ki turned out to be 60 nM. Under “0.1 μM compound”, the inhibition at 0.1 µM worked out at 76%.

In the case of `Cc1cc(C)cc(O[C@@H]2CN[C@H](C(=O)NC3C4CC5CC(C4)CC3C5)C2)c1` (stereo partly drawn) [Example 347], the Ki worked out at 3.3 nM. This compound also had an inhibition at 0.1 µM (0.1 μM compound) of 96.6%.

For `CCCN1CCC[C@@H]1C(=O)NCc1ccc(OC)cc1` [Example 218], the Ki was 2500 nM. The inhibition at 0.1 µM (0.1 μM compound) came to 91.1%.

`CC(C)CN1CCCCC1C(=O)NC12CC3CC(CC(C3)C1)C2` (stereo not drawn) [Example 206]: the Ki turned out to be 5.2 nM. For the setting “0.1 μM compound”, this compound came in with an inhibition at 0.1 µM of 100%.

For `O=C(NCc1c(F)cccc1F)[C@H]1CCCN1Cc1ccc(Cl)cc1` [Example 244], the Ki turned out to be 18 nM. For the same compound, at 0.1 µM the inhibition (0.1 μM compound) was 87.1%.

For the compound `CCCN1CCC[C@@H]1C(=O)NCc1ccccc1` [Example 217], the Ki turned out to be 171 nM. The compound also returned an inhibition at 0.1 µM (0.1 μM compound) of 84.6%.

On to `CC(C)CN1CCC[C@@H]1C(=O)NCc1c(F)cccc1F` [Example 239], for which the Ki stood at 5.62 nM. For the setting “0.1 μM compound”, the inhibition at 0.1 µM worked out at 97.6%.

Turning to `C[C@@H](NC(=O)[C@H]1COCCN1CC1CCCC1)c1ccccc1` [Example 309], the Ki worked out at 32 nM. Moreover, 0.1 µM produced 86.1% inhibition (0.1 μM compound).

As for `O=C(NC1CCCCC1)[C@H]1C[C@@H](O)CN1Cc1ccc(F)cc1` [Example 31], for the setting “compound at 0.1 μM”, at 0.1 µM the inhibition was 53%.

Take `O=C(NCc1ccc(F)cc1F)[C@H]1CCCN1Cc1ccc(Cl)cc1` [Example 243]: the Ki amounted to 15 nM. Also, at 0.1 µM the inhibition (0.1 μM compound) was 84.9%.

For the compound `CC(C)CN1[C@H]2CC[C@H](C2)[C@@H]1C(=O)NC12CC3CC(CC(C3)C1)C2` (relative stereo) [Example 210], the Ki worked out at 1 nM. For the same compound, under “0.1 μM compound”, the inhibition at 0.1 µM was determined as 100%.

For `CC(C)CN1C[C@H](O)C[C@@H]1C(=O)NC1CCCCC1` [Example 29], for the setting “human 11b-hsd-1”, the Ki was found to be 39.2 nM. The inhibition at 0.1 µM (compound at 0.1 μM) was determined as 69%.
